From US20030139431A1 (priority 2001, published 2003)

Columns and labels:
[1] = molecular target: T1, rNPFF1 (Rattus norvegicus, UniProt Q9EP86); assay: Functional assay (agonist potency, intrinsic activity) at cloned rat NPFF1 receptor; assay type: cell-based; conditions: for rNPFF1 IA (intrinsic activity): percent of maximum response elicited by neuropeptide FF, rat NPFF1; for EC50: recombinant rat NPFF1
T1 construct: expressed in transfected cells
Method: (§1) Intrinsic activity of a compound is measured as the percent of maximum response.

[2] = molecular target: T2, rNPFF2 (Rattus norvegicus, UniProt Q9EQD2); assay: Binding affinity at cloned recombinant rat NPFF2 receptor
T2 construct: expressed in transfected cells
T2 sequence (Q9EQD2 whole entry): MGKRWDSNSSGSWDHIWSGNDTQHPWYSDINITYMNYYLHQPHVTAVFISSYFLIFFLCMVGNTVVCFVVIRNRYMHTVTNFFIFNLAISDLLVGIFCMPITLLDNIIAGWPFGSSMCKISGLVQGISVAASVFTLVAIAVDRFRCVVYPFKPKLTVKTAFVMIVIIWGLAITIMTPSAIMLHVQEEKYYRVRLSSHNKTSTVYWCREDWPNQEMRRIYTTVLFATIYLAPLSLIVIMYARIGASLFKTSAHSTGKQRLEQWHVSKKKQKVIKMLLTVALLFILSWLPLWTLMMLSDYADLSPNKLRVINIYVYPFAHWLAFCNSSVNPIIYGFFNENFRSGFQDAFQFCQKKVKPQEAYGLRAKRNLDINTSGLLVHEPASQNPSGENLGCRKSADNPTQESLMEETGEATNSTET

[3] = molecular target: T1, rNPFF1; assay: Binding affinity at cloned recombinant rat NPFF1 receptor
[4] = molecular target: T2, rNPFF2; assay: Functional assay (agonist potency, intrinsic activity) at cloned rat NPFF2 receptor; assay type: cell-based; conditions: for rNPFF2 IA (intrinsic activity): percent of maximum response elicited by neuropeptide FF, rat NPFF2; for EC50: recombinant rat NPFF2
Method: as §1

T1 sequence (Q9EP86 whole entry): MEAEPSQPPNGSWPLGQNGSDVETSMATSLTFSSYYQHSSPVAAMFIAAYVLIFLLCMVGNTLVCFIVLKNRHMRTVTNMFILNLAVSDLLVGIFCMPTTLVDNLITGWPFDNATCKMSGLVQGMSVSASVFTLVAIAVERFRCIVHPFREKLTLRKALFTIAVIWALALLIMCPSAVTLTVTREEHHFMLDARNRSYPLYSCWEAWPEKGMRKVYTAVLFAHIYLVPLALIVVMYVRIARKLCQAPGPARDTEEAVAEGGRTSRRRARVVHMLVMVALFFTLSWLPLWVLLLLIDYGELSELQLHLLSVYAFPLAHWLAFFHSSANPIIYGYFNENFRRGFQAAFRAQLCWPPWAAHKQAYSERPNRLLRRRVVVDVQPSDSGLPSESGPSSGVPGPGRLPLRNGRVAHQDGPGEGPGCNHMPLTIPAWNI

Row | SMILES | rNPFF1 IA (intrinsic activity) [1] | EC50 [1] [µM] | Ki [2] [µM] | Ki [3] [µM] | rNPFF2 IA (intrinsic activity) [4] | EC50 [4] [µM]
1 | Cc1ccc2nc(NC(=N)N)nc(C)c2c1 [Compound 1002, N-(4,6-dimethyl-2-quinazolinyl)guanidine] | Inactive | > 10 | 3.92 | 0.134 | 24% NPFF | 5.62
2 | CCc1ccc2nc(NC(=N)N)nc(C)c2c1 [Compound 1003, N-(6-ethyl-4-methyl-2-quinazolinyl)guanidine] | Inactive | > 10 | 1.64 | 0.238 | 83% NPFF | 0.392
3 | Cc1nc(NC(=N)N)nc2ccc(C(C)(C)C)cc12 [Compound 1004, N-(6-tert-butyl-4-methyl-2-quinazolinyl)guanidine] | 36% NPFF | 1.47 | 1.49 | 0.71 | 90% NPFF | 0.44
4 | Cc1nc(NC(=N)N)nc2ccc(OCCCCCOc3ccccc3)cc12 [Compound 1005, N-4-methyl-6-[(5-phenoxypentyl)oxy]-2-quinazolinylguanidine] | Inactive | > 10 | 2.14 | 0.316 | 21% NPFF | 3.16
5 | Cc1nc(NC(=N)N)nc2cc(OCc3ccccc3)ccc12 [Compound 1006, N-[7-(benzyloxy)-4-methyl-2-quinazolinyl]guanidine] | 15% NPFF | > 10 | 1.07 | 0.41 | 22% NPFF | 1.08
6 | CCCc1ccc2nc(NC(=N)N)nc(C)c2c1 [Compound 1008, N-(4-methyl-6-propyl-2-quinazolinyl)guanidine] | Inactive | > 10 | 1.12 | 0.155 | 85% NPFF | 0.619
7 | CCCCCCCCc1ccc2nc(NC(=N)N)nc(C)c2c1 [Compound 1009, N-(4-methyl-6-octyl-2-quinazolinyl)guanidine] | Inactive |  | 0.703 | 0.312 | 22% NPFF | 5.62
8 | Cc1nc(NC(=N)N)nc2ccc(-c3ccccc3)cc12 [Compound 1010, N-(4-methyl-6-phenyl-2-quinazolinyl)guanidine] | Inactive | > 10 | 3.48 | 0.311 | 22% NPFF | > 10
9 | COc1ccc2nc(NC(=N)N)nc(C)c2c1 [Compound 1011, N-(6-methoxy-4-methyl-2-quinazolinyl)guanidine] | Inactive | > 10 | > 10 | 0.201 | Inactive | > 10
10 | CCCCOc1ccc2nc(NC(=N)N)nc(C)c2c1 [Compound 1012, N-(6-butoxy-4-methyl-2-quinazolinyl)guanidine] | Inactive | > 10 | 4.85 | 0.733 | 80% NPFF | 1.62
11 | Cc1nc(NC(=N)N)nc2ccc(Cl)cc12 [Compound 1013, N-(6-chloro-4-methyl-2-quinazolinyl)guanidine] | Inactive | > 10 | 2.02 | 0.332 | 52% NPFF | 0.69
12 | Cc1nc(NC(=N)N)nc2cc(Br)ccc12 [Compound 1014, N-(7-bromo-4-methyl-2-quinazolinyl)guanidine] | Inactive | > 10 | 3.44 | 0.3 | 47% NPFF | 2.46
13 | Cc1cc2nc(NC(=N)N)nc(C)c2cc1C [Compound 1015, N-(4,6,7-trimethyl-2-quinazolinyl)guanidine] | Inactive | > 10 | 1.11 | 0.042 | 56% NPFF | 0.272
14 | COc1cc2c(C)nc(NC(=N)N)nc2cc1C [Compound 1016, N-(6-methoxy-4,7-dimethyl-2-quinazolinyl)guanidine] | Inactive | > 10 | 2.5 | 0.565 | 74% NPFF | 3.16
15 | Cc1cc2nc(NC(=N)N)nc(C)c2cc1O [Compound 1017, N-(6-hydroxy-4,7-dimethyl-2-quinazolinyl)guanidine] | Inactive | > 10 | 5.92 | 0.234 | 23% NPFF | > 10
16 | CCCCOc1cc2nc(NC(=N)N)nc(C)c2cc1OCCCC [Compound 1018, N-(6,7-dibutoxy-4-methyl-2-quinazolinyl)guanidine] | Inactive | > 10 | 1.3 | 0.303 | Inactive | > 10
17 | Cc1nc(NC(=N)N)nc2cc(F)c(F)cc12 [Compound 1019, N-(6,7-difluoro-4-methyl-2-quinazolinyl)guanidine] | Inactive | > 10 | 2.87 | 0.057 | 31% NPFF | 2.54
18 | CCc1ccc2c(C)nc(NC(=N)N)nc2c1 [Compound 1020, N-(7-ethyl-4-methyl-2-quinazolinyl)guanidine] | Inactive | > 10 | 0.273 | 0.018 | 90% NPFF | 0.695
19 | Cc1nc(NC(=N)N)nc2cc(C(C)C)ccc12 [Compound 1021, N-(7-isopropyl-4-methyl-2-quinazolinyl)guanidine] | Inactive | > 10 | 0.881 | 0.056 | 76% NPFF | 0.283
20 | CCOc1ccc2c(C)nc(NC(=N)N)nc2c1 [Compound 1024, N-(7-ethoxy-4-methyl-2-quinazolinyl)guanidine] | Inactive | > 10 | 5.59 | 0.659 | Inactive | > 10
21 | Cc1nc(NC(=N)N)nc2cc(OC(C)C)ccc12 [Compound 1025, N-[4-methyl-7-(isopropoxy)-2-quinazolinyl]guanidine] | Inactive | > 10 | 4.53 | 0.253 | 27% NPFF | 3.16
22 | Cc1nc(NC(=N)N)nc2ccc(Br)cc12 [Compound 1026, N-(6-bromo-4-methyl-2-quinazolinyl)guanidine] | Inactive | > 10 | > 10 | 0.802 | 19% NPFF | > 10
23 | Cc1nc(NC(=N)N)nc2ccc(OCc3ccccc3)cc12 [Compound 1028, N-[6-(benzyloxy)-4-methyl-2-quinazolinyl]guanidine] | Inactive | > 10 | 0.817 | 0.386 | 79% NPFF | 0.758
24 | Cc1nc(NC(=N)N)nc2ccc(C3CCCCC3)cc12 [Compound 1029, N-(6-cyclohexyl-4-methyl-2-quinazolinyl)guanidine] | 28% NPFF | > 10 | 1.2 | 0.912 | 31% NPFF | 2.05
